Laboratory results published in patent US20240252454A1, “COMPOSITION COMPRISING AN INHIBITOR OF MITOCHONDRIAL TRANSCRIPTION” (LEAD DISCOVERY CENTER GMBH, priority 2021, published 2024).

Test system: A2780
Test: CellTiter-GLO (CTG) assay, combinatorial matrix
Type: cell-based

Compound: O=C(c1cc(Cc2n[nH]c(=O)c3ccccc23)ccc1F)N1CCN(C(=O)C2CC2)CC1 [Olaparib]
- combination of IMT and PARPi compared to treatment with just the PARPi alone (A2780, CTG matrix, 30 μM to 10 nM IMT (3S)-1-[(2R)-2-[4-(2-chloro-4-fluoro-phenyl)-2-oxo-chromen-7-yl]oxypropanoyl]piperidine-3-carboxylic acid + 30 μM to 40 nM of the labelled PARPi): advantage of the combination
- activity at 0.04 µM (Homo sapiens, A2780, 72 hours, Olaparib 0.04 μM, IMT (3S)-1-[(2R)-2-[4-(2-chloro-4-fluoro-phenyl)-2-oxo-chromen-7-yl]oxypropanoyl]piperidine-3-carboxylic acid at the μM of c0, untreated control =100%, read-out: Measured residual activity (cellular ATP content)): 99%
- activity at 0.1 µM (Homo sapiens, A2780, 72 hours, Olaparib 0.1 μM, IMT (3S)-1-[(2R)-2-[4-(2-chloro-4-fluoro-phenyl)-2-oxo-chromen-7-yl]oxypropanoyl]piperidine-3-carboxylic acid at the μM of c0, untreated control =100%, read-out: Measured residual activity (cellular ATP content)): 85%
- activity at 0.4 µM (Homo sapiens, A2780, 72 hours, Olaparib 0.4 μM, IMT (3S)-1-[(2R)-2-[4-(2-chloro-4-fluoro-phenyl)-2-oxo-chromen-7-yl]oxypropanoyl]piperidine-3-carboxylic acid at the μM of c0, untreated control =100%, read-out: Measured residual activity (cellular ATP content)): 46%
- activity at 1.1 µM (Homo sapiens, A2780, 72 hours, Olaparib 1.1 μM, IMT (3S)-1-[(2R)-2-[4-(2-chloro-4-fluoro-phenyl)-2-oxo-chromen-7-yl]oxypropanoyl]piperidine-3-carboxylic acid at the μM of c0, untreated control =100%, read-out: Measured residual activity (cellular ATP content)): 27%
- activity at […] (Homo sapiens, A2780, 72 hours, Olaparib 3.3 μM, IMT (3S)-1-[(2R)-2-[4-(2-chloro-4-fluoro-phenyl)-2-oxo-chromen-7-yl]oxypropanoyl]piperidine-3-carboxylic acid at the μM of c0, untreated control =100%, read-out: Measured residual activity (cellular ATP content)): 14%
- activity at 10 µM (Homo sapiens, A2780, 72 hours, Olaparib 10 μM, IMT (3S)-1-[(2R)-2-[4-(2-chloro-4-fluoro-phenyl)-2-oxo-chromen-7-yl]oxypropanoyl]piperidine-3-carboxylic acid at the μM of c0, untreated control =100%, read-out: Measured residual activity (cellular ATP content)): 1%
- activity at 30 µM (Homo sapiens, A2780, 72 hours, Olaparib 30 μM, IMT (3S)-1-[(2R)-2-[4-(2-chloro-4-fluoro-phenyl)-2-oxo-chromen-7-yl]oxypropanoyl]piperidine-3-carboxylic acid at the μM of c0, untreated control =100%, read-out: Measured residual activity (cellular ATP content)): 0%
